Assay results reported in ChEMBL document CHEMBL1157712, “Hit to lead account of the discovery of bisbenzamide and related ureidobenzamide inhibitors of Rho kinase” (J Med Chem, 2010).
≈ marks a conversion by molar mass, not a printed value.

Experiments:
[1] = test system: ROCK1 (Homo sapiens); assay: Inhibition of ROCK1
[2] = target: Mitogen-activated protein kinase 1 (Homo sapiens) (UniProt P28482); assay: Inhibition of MAPK2 at 3 uM relative to control; values are per cent of control
[3] = target: Serine/threonine-protein kinase Nek6 (Homo sapiens) (UniProt Q9HC98); assay: Inhibition of NEK6 at 3 uM relative to control; values are per cent of control
[4] = target: MAP/microtubule affinity-regulating kinase 3 (Homo sapiens) (UniProt P27448); assay: Inhibition of MARK3 at 3 uM relative to control; values are per cent of control
[5] = target: Mitogen-activated protein kinase 15 (Homo sapiens) (UniProt Q8TD08); assay: Inhibition of ERK8 at 3 uM relative to control; values are per cent of control
[6] = target: Focal adhesion kinase 1 (Homo sapiens, UniProt Q05397); assay: Inhibition of PTK2
[7] = target: Epidermal growth factor receptor (Homo sapiens) (UniProt P00533); details: 3 to 6 uM
Description: Inhibition of EGFR at 3 to 6 uM relative to control

[8] = target: Serine/threonine-protein kinase PLK1 (Homo sapiens, UniProt P53350); assay: Inhibition of PLK
[9] = target: T1, Cytochrome P450 1A2 (Homo sapiens, UniProt P05177); assay: Inhibition of human CYP1A2 by fluorescence assay; type: ADME
T1 sequence (P05177 whole entry): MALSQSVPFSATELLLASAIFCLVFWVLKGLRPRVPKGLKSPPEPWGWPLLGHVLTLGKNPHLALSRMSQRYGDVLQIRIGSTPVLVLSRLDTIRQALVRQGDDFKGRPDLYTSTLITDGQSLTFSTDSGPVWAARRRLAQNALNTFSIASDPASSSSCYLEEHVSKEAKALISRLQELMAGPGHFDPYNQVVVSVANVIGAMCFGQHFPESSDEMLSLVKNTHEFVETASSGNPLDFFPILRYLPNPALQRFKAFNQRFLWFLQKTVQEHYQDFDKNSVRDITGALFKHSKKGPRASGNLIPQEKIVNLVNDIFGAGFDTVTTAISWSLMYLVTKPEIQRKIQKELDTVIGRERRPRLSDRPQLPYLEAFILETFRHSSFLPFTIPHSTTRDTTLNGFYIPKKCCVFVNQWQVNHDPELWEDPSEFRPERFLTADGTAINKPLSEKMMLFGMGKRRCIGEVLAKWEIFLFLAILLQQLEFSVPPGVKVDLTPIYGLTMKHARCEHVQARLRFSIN

[10] = Solubility at pH 7.4; type: physicochemical; details: buffer
[11] = target: Proto-oncogene tyrosine-protein kinase Src (Homo sapiens) (UniProt P12931); details: 3 to 6 uM
Description: Inhibition of SRC at 3 to 6 uM relative to control

[12] = target: Glycogen synthase kinase-3 beta (Homo sapiens) (UniProt P49841); details: 3 to 6 uM
Description: Inhibition of GSK3-beta at 3 to 6 uM relative to control

[13] = target: Myosin light chain kinase, smooth muscle (Homo sapiens) (UniProt Q15746); details: 3 to 6 uM
Description: Inhibition of SMMLCK at 3 to 6 uM relative to control

[14] = Metabolic stability in human liver microsomes assessed as half life; type: ADME, Microsome

Sequence of Focal adhesion kinase 1 (Q05397 whole entry): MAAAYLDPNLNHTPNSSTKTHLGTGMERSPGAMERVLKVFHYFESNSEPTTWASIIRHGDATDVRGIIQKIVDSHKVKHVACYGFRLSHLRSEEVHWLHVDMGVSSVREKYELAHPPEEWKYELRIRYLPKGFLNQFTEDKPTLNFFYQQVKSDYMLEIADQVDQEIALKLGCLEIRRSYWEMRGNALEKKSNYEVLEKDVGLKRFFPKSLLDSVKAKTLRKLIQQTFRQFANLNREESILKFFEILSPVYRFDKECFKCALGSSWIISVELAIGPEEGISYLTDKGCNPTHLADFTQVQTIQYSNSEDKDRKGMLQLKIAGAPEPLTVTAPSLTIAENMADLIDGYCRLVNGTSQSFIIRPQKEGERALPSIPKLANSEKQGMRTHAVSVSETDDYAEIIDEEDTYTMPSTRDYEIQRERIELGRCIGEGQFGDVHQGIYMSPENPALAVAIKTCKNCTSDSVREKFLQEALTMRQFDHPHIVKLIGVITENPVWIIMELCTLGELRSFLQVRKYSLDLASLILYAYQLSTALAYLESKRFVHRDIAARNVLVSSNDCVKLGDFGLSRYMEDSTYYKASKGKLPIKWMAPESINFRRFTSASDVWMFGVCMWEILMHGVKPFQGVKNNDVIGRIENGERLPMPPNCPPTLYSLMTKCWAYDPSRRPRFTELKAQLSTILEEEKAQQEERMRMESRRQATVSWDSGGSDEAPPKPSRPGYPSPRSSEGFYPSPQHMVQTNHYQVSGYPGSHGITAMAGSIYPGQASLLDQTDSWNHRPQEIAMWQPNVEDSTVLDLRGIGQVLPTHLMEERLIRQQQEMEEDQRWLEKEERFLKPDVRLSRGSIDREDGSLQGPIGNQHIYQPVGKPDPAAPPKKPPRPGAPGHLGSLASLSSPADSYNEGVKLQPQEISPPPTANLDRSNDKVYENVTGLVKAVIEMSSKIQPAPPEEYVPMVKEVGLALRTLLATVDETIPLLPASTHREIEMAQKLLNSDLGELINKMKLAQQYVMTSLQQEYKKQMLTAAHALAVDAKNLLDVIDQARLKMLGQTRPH
Sequence of Serine/threonine-protein kinase PLK1 (P53350 whole entry): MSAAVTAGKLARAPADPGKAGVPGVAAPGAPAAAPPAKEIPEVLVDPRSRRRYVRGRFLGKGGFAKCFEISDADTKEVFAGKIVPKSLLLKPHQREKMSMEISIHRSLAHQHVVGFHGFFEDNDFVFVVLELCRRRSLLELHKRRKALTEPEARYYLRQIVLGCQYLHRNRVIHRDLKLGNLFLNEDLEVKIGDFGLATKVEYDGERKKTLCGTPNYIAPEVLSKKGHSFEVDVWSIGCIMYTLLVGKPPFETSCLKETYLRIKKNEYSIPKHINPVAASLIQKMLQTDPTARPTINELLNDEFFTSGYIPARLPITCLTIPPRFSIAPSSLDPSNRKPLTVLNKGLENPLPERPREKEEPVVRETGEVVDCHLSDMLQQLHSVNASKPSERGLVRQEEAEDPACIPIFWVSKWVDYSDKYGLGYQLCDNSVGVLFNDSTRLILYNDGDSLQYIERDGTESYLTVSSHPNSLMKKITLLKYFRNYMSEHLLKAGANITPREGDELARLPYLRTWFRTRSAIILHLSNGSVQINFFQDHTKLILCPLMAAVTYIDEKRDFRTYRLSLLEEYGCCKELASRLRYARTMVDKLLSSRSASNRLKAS
Sequence of MAP/microtubule affinity-regulating kinase 3 (Homo sapiens) (P27448 whole entry, looked up): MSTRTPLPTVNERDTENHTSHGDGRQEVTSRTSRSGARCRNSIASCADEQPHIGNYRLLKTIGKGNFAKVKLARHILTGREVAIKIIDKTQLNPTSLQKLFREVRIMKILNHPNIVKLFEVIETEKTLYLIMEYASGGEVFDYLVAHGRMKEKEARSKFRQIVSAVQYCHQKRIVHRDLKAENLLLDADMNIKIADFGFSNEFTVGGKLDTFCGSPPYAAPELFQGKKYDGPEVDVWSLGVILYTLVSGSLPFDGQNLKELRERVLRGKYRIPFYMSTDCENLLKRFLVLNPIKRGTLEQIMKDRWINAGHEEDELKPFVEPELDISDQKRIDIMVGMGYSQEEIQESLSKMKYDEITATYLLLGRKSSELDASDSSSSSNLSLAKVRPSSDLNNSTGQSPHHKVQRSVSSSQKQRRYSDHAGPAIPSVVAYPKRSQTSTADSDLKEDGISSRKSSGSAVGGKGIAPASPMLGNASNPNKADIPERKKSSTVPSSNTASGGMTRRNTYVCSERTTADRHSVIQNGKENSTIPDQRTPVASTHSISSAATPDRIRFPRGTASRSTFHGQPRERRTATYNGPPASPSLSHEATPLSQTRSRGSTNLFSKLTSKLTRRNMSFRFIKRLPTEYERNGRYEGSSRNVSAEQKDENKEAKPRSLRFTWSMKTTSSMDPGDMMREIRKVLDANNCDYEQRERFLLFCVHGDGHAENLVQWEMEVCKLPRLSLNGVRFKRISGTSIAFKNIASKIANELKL
Sequence of Serine/threonine-protein kinase Nek6 (Homo sapiens) (Q9HC98 whole entry): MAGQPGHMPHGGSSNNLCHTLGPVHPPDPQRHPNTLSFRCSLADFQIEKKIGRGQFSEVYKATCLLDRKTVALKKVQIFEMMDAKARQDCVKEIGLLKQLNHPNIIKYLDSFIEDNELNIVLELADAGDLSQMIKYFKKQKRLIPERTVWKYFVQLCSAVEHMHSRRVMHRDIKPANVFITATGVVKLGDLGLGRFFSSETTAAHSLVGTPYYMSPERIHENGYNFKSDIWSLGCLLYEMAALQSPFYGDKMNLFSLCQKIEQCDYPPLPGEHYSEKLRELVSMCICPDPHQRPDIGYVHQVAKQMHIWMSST
Sequence of Epidermal growth factor receptor (Homo sapiens) (P00533 whole entry): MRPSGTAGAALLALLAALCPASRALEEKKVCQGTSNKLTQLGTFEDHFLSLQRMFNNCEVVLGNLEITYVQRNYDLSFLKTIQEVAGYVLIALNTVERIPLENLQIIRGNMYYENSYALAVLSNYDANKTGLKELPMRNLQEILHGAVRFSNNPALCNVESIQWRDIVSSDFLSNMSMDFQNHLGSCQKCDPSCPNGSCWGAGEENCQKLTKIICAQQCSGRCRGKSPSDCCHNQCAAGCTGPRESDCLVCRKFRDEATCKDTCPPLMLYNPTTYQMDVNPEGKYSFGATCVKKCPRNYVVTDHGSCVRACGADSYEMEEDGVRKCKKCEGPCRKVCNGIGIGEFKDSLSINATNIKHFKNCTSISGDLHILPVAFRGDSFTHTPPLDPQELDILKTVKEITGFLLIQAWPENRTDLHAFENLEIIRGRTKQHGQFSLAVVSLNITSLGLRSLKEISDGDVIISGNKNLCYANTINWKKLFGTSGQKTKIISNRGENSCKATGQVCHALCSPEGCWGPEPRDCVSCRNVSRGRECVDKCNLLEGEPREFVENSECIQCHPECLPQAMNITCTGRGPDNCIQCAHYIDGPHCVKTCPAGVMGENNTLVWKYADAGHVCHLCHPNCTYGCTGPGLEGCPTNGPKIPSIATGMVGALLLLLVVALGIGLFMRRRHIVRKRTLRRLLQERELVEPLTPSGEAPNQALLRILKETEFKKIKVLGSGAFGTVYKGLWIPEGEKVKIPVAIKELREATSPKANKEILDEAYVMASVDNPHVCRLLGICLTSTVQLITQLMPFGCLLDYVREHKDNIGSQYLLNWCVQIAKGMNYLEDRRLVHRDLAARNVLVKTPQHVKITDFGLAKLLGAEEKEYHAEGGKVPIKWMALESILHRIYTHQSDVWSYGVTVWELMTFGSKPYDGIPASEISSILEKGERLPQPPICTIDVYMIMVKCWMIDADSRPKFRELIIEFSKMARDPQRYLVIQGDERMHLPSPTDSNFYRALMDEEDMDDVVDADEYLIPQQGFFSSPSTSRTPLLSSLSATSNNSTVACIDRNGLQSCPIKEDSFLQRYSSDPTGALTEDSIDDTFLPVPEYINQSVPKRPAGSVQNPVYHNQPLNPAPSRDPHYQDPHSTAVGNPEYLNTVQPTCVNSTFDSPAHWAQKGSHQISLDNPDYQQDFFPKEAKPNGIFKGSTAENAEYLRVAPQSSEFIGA
Sequence of Glycogen synthase kinase-3 beta (Homo sapiens) (P49841 whole entry, looked up): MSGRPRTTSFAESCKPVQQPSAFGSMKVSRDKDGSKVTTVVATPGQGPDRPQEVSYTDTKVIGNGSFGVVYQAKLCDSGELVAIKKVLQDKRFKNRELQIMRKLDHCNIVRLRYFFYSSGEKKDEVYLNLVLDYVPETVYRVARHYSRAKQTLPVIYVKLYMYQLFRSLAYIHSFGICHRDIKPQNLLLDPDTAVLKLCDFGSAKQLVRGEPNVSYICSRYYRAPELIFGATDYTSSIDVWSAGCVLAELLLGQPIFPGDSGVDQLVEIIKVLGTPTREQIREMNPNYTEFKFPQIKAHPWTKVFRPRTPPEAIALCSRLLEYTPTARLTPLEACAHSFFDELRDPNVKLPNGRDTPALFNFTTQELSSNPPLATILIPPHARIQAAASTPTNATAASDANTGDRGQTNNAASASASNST
Sequence of Proto-oncogene tyrosine-protein kinase Src (Homo sapiens) (P12931 2-536 limits assumed): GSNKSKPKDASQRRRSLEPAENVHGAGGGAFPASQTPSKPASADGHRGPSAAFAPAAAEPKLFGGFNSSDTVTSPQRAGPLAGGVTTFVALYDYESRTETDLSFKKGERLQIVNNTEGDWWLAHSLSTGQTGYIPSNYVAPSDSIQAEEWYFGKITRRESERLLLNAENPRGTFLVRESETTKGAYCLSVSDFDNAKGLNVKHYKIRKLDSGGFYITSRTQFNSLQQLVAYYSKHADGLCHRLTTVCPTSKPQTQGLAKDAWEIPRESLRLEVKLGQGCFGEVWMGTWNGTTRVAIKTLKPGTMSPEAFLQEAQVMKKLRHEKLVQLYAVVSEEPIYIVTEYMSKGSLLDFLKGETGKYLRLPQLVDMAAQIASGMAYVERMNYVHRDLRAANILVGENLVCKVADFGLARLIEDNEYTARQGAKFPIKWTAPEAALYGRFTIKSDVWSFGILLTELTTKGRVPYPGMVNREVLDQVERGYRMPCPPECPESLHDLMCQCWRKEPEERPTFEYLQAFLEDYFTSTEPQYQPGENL

Row | IC50 [1] [µM] | residual activity [2] [%] | residual activity [3] [%] | residual activity [4] [%] | IC50 [6] [µM] | residual activity [7] [%] | IC50 [8] [µM] | IC50 [9] [µM] | solubility [10] [µg/mL] | residual activity [11] [%] | residual activity [12] [%] | residual activity [13] [%] | half-life [14] [h] | SMILES | residual activity [5] [%]
1 | 0.006 | > 50 | > 50 | > 50 | – | – | – | – | – | – | – | – | – | NC(=O)c1ccc(NC(=O)NCc2cccc(C(=O)Nc3ccc4c(c3)CNCC4)c2)cc1 | > 50
2 | – | – | – | – | > 10 | > 50 | > 10 | > 30 | 49 (≈ 110 µM) | > 50 | > 50 | > 50 | 2.43 | COc1ccc(C(=O)NCc2cccc(C(=O)Nc3ccc4c(c3)CNCC4)c2)cc1OC | –
